Experimental data: ChEMBL document CHEMBL1212927, “Synthesis and structure-activity relationships of novel 8a-aza-8a-homoerythromycin A ketolides” (2010)
In brackets after ≈: the same amount, converted by molar mass.

Experiments:
[1] = tested on: Staphylococcus aureus; experiment: Antibacterial activity against efflux-resistant Staphylococcus aureus B0331 by agar microdilution method; assay type: functional
[2] = tested on: Staphylococcus aureus; experiment: Antibacterial activity against constitutive macrolide-lincosamide-streptogramin B-resistant Staphylococcus aureus B0330 by agar microdilution method; assay type: functional
[3] = tested on: Streptococcus pneumoniae; experiment: Antibacterial activity against constitutive macrolide-lincosamide-streptogramin B-resistant Streptococcus pneumoniae B0627 by agar microdilution method; assay type: functional
[4] = tested on: Streptococcus pneumoniae; experiment: Antibacterial activity against efflux-resistant Streptococcus pneumoniae B0326 by agar microdilution method; assay type: functional
[5] = tested on: Streptococcus pyogenes; experiment: Antibacterial activity against constitutive macrolide-lincosamide-streptogramin B-resistant Streptococcus pyogenes B0544 by agar microdilution method; assay type: functional
[6] = tested on: Streptococcus pyogenes; experiment: Antibacterial activity against efflux-resistant Streptococcus pyogenes B0545 by agar microdilution method; assay type: functional
[7] = tested on: Staphylococcus aureus; experiment: Antibacterial activity against inducible macrolide-lincosamide-streptogramin B-resistant Staphylococcus aureus B0538 by agar microdilution method; assay type: functional
[8] = tested on: Staphylococcus aureus; experiment: Antibacterial activity against erythromycin A-susceptible Staphylococcus aureus B0329 by agar microdilution method
[9] = tested on: Streptococcus pyogenes; experiment: Antibacterial activity against erythromycin A-susceptible Streptococcus pyogenes B0542 by agar microdilution method
[10] = tested on: Streptococcus pneumoniae; experiment: Antibacterial activity against erythromycin-susceptible Streptococcus pneumoniae B0541 by agar microdilution method
[11] = tested on: Streptococcus pyogenes; experiment: Antibacterial activity against inducible macrolide-lincosamide-streptogramin B-resistant Streptococcus pyogenes B0543 by agar microdilution method; assay type: functional
[12] = tested on: Moraxella catarrhalis; experiment: Antibacterial activity against Moraxella catarrhalis B0324 by agar microdilution method; assay type: functional
[13] = tested on: Haemophilus influenzae; experiment: Antibacterial activity against Haemophilus influenzae B0529 by agar microdilution method; assay type: functional

Row | Structure (SMILES) | MIC [1] [µg/mL] | MIC [2] [µg/mL] | MIC [3] [µg/mL] | MIC [4] [µg/mL] | MIC [5] [µg/mL] | MIC [6] [µg/mL] | MIC [7] [µg/mL] | MIC [8] [µg/mL] | MIC [9] [µg/mL] | MIC [10] [µg/mL] | MIC [11] [µg/mL] | MIC [12] [µg/mL] | MIC [13] [µg/mL]
1 | CC[C@H]1OC(=O)[C@H](C)C(=O)[C@H](C)[C@@H](O[C@@H]2O[C@H](C)C[C@H](N(C)C)[C@H]2O)[C@](C)(OCC(O)CN2CCN(c3ccc(F)cc3)CC2)C[C@@H](C)NC(=O)[C@H](C)[C@@H](O)[C@]1(C)O (some centres not stated) | 16 (≈ 19.4 µM) | > 64 | 32 (≈ 38.8 µM) | 16 (≈ 19.4 µM) | > 64 | 4 (≈ 4.85 µM) | 16 (≈ 19.4 µM) | 4 (≈ 4.85 µM) | ≤ 0.125 | 0.5 (≈ 0.606 µM) | 4 (≈ 4.85 µM) | 4 (≈ 4.85 µM) | 32 (≈ 38.8 µM)
2 | CC[C@H]1OC(=O)[C@H](C)C(=O)[C@H](C)[C@@H](O[C@@H]2O[C@H](C)C[C@H](N(C)C)[C@H]2O)[C@](C)(OCC(O)CN2CCN(c3ccc([N+](=O)[O-])cc3)CC2)C[C@@H](C)NC(=O)[C@H](C)[C@@H](O)[C@]1(C)O (some centres not stated) | 2 (≈ 2.35 µM) | > 64 | 4 (≈ 4.69 µM) | 2 (≈ 2.35 µM) | 8 (≈ 9.39 µM) | 1 (≈ 1.17 µM) | 2 (≈ 2.35 µM) | 1 (≈ 1.17 µM) | 0.25 (≈ 0.293 µM) | ≤ 0.125 | 2 (≈ 2.35 µM) | 0.5 (≈ 0.587 µM) | 8 (≈ 9.39 µM)
3 | CC[C@H]1OC(=O)[C@H](C)C(=O)[C@H](C)[C@@H](O[C@@H]2O[C@H](C)C[C@H](N(C)C)[C@H]2O)[C@](C)(OCC(O)CNc2cnc3ccccc3c2)C[C@@H](C)NC(=O)[C@H](C)[C@@H](O)[C@]1(C)O (some centres not stated) | 1 (≈ 1.27 µM) | > 64 | 8 (≈ 10.1 µM) | 2 (≈ 2.53 µM) | 16 (≈ 20.3 µM) | 8 (≈ 10.1 µM) | 2 (≈ 2.53 µM) | 2 (≈ 2.53 µM) | ≤ 0.125 | ≤ 0.125 | 4 (≈ 5.07 µM) | 0.5 (≈ 0.634 µM) | 8 (≈ 10.1 µM)
4 | CC[C@H]1OC(=O)[C@H](C)C(=O)[C@H](C)[C@@H](O[C@@H]2O[C@H](C)C[C@H](N(C)C)[C@H]2O)[C@](C)(OCC(O)CNc2ccc3ncccc3c2)C[C@@H](C)NC(=O)[C@H](C)[C@@H](O)[C@]1(C)O (some centres not stated) | 0.25 (≈ 0.317 µM) | > 64 | 2 (≈ 2.53 µM) | 1 (≈ 1.27 µM) | 8 (≈ 10.1 µM) | 4 (≈ 5.07 µM) | 2 (≈ 2.53 µM) | 1 (≈ 1.27 µM) | ≤ 0.125 | ≤ 0.125 | 2 (≈ 2.53 µM) | 1 (≈ 1.27 µM) | 0.5 (≈ 0.634 µM)
5 | CC[C@H]1OC(=O)[C@H](C)C(=O)[C@H](C)[C@@H](O[C@@H]2O[C@H](C)C[C@H](N(C)C)[C@H]2O)[C@](C)(OCC(O)CNCc2ccc3ncccc3c2)C[C@@H](C)NC(=O)[C@H](C)[C@@H](O)[C@]1(C)O (some centres not stated) | 0.25 (≈ 0.311 µM) | > 64 | 4 (≈ 4.98 µM) | 1 (≈ 1.25 µM) | 8 (≈ 9.96 µM) | 2 (≈ 2.49 µM) | 0.5 (≈ 0.623 µM) | 0.5 (≈ 0.623 µM) | ≤ 0.125 | ≤ 0.125 | 2 (≈ 2.49 µM) | 1 (≈ 1.25 µM) | 1 (≈ 1.25 µM)
6 | CC[C@H]1OC(=O)[C@H](C)C(=O)[C@H](C)[C@@H](O[C@@H]2O[C@H](C)C[C@H](N(C)C)[C@H]2O)[C@](C)(OC[C@@H](O)CNCCNc2ccc3ncccc3c2)C[C@@H](C)NC(=O)[C@H](C)[C@@H](O)[C@]1(C)O | 0.25 (≈ 0.3 µM) | > 64 | ≤ 0.125 | ≤ 0.125 | 1 (≈ 1.2 µM) | 0.5 (≈ 0.601 µM) | 0.25 (≈ 0.3 µM) | ≤ 0.125 | ≤ 0.125 | ≤ 0.125 | ≤ 0.125 | ≤ 0.125 | 0.25 (≈ 0.3 µM)
7 | CC[C@H]1OC(=O)[C@H](C)C(=O)[C@H](C)[C@@H](O[C@@H]2O[C@H](C)C[C@H](N(C)C)[C@H]2O)[C@](C)(OC[C@H](O)CNCCNc2ccc3ncccc3c2)C[C@@H](C)NC(=O)[C@H](C)[C@@H](O)[C@]1(C)O | 0.5 (≈ 0.601 µM) | > 64 | 0.5 (≈ 0.601 µM) | 0.25 (≈ 0.3 µM) | 4 (≈ 4.81 µM) | 0.5 (≈ 0.601 µM) | 0.25 (≈ 0.3 µM) | ≤ 0.125 | ≤ 0.125 | ≤ 0.125 | 0.5 (≈ 0.601 µM) | 0.5 (≈ 0.601 µM) | 0.5 (≈ 0.601 µM)
8 | CC[C@H]1OC(=O)[C@H](C)C(=O)[C@H](C)[C@@H](O[C@@H]2O[C@H](C)C[C@H](N(C)C)[C@H]2O)[C@](C)(OCC(O)CN2CCN(c3cnc4ccccc4c3)CC2)C[C@@H](C)NC(=O)[C@H](C)[C@@H](O)[C@]1(C)O (some centres not stated) | 0.5 (≈ 0.583 µM) | > 64 | 4 (≈ 4.66 µM) | 1 (≈ 1.17 µM) | 32 (≈ 37.3 µM) | 4 (≈ 4.66 µM) | 2 (≈ 2.33 µM) | 1 (≈ 1.17 µM) | ≤ 0.125 | ≤ 0.125 | 8 (≈ 9.32 µM) | 4 (≈ 4.66 µM) | 8 (≈ 9.32 µM)
9 | CC[C@H]1OC(=O)[C@H](C)C(=O)[C@H](C)[C@@H](O[C@@H]2O[C@H](C)C[C@H](N(C)C)[C@H]2O)[C@](C)(OCC(O)CN2CCN(c3ccc4ncccc4c3)CC2)C[C@@H](C)NC(=O)[C@H](C)[C@@H](O)[C@]1(C)O (some centres not stated) | 2 (≈ 2.33 µM) | > 64 | 1 (≈ 1.17 µM) | 0.5 (≈ 0.583 µM) | 4 (≈ 4.66 µM) | 2 (≈ 2.33 µM) | 0.25 (≈ 0.291 µM) | 0.25 (≈ 0.291 µM) | ≤ 0.125 | ≤ 0.125 | 0.25 (≈ 0.291 µM) | 1 (≈ 1.17 µM) | 2 (≈ 2.33 µM)
